Counter-ions that a name gives are not always drawn.
Tested on: clot lysis (fibrinolysis) in diluted human citrated plasma, tPA-induced
Assay: Plasma-based clot lysis assay (5%)
Type: biochemical
Conditions: human citrated platelet-poor plasma 5%, fibrinogen 3 μM, CaCl2 10 mM, tPA 0.2 nM, 37° C., OD at 405 nm
Procedure, shortened: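 Clot formation and breakdown triggered by CaCl2 (10 mM final) plus tPA (0.2 nM final) at 37° C, in 5% diluted human plasma supplemented with 3 μM fibrinogen (HEPES/NaCl/Brij buffer, pH 7). IC50 obtained from time courses relative to a blank control.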

IC50 [nM]	Compound
120	O=C(c1cnn2c(C3CCNCC3)cc(=O)[nH]c12)N1CCC12CCOCC2 [Example 359, 3-(7-oxa-1-azaspiro[3.5]non-1-ylcarbonyl)-7-(piperidin-4-yl)pyrazolo[1,5-a]pyrimidin-5(4H)-one trifluoroacetate]
24	Cc1nn2c(C3CCNCC3)cc(=O)[nH]c2c1C(=O)NC1CCCC1 [Example 417, N-cyclopentyl-2-methyl-5-oxo-7-(piperidin-4-yl)-4,5-dihydro-pyrazolo[1,5-a] pyrimidine-3-carboxamide hydrochloride]
29	Cc1nn2c(C3CCNCC3)cc(=O)[nH]c2c1-c1nc(-c2cccc(Cl)c2)no1 [Example 441, 3-[3-(3-chlorophenyl)-1,2,4-oxadiazol-5-yl]-2-methyl-7-(piperidin-4-yl)pyrazolo[1,5-a]pyrimidin-5(4H)-one hydrochloride]
460	Cc1nn2c(C3CCNCC3)cc(=O)[nH]c2c1C(=O)O [Example 323, 2-methyl-5-oxo-7-(piperidin-4-yl)-4,5-dihydropyrazolo[1,5-a]pyrimidine-3-carboxylic acid hydrochloride]
14	O=c1cc(C2CCNCC2)n2ncc(-c3noc(C4CCCC4)n3)c2[nH]1 [Example 385, 3-(5-Cyclopentyl-1,2,4-oxadiazol-3-yl)-7-(piperidin-4-yl)pyrazolo[1,5-a]pyrimidin-5(4H)-one hydrochloride]
26	O=c1cc(C2CCNCC2)n2ncc(-c3nnc(-c4ccccc4Cl)o3)c2[nH]1 [Example 290, 3-[5-(2-chlorophenyl)-1,3,4-oxadiazol-2-yl]-7-(piperidin-4-yl)pyrazolo[1,5-a]pyrimidin-5(4H)-one hydrochloride]
140	O=c1cc(C2CCNCC2)n2ncc(-c3cccc(-c4ccc(C(F)(F)F)cc4)c3)c2[nH]1 [Example 162, 7-(piperidin-4-yl)-3-[4′-(trifluoromethyl)biphenyl-3-yl]pyrazolo[1,5-a]pyrimidin-5(4H)-one hydrochloride]
56	Cc1nn2c(C3CCNCC3)cc(=O)[nH]c2c1C(=O)N1CCOC(C)(C)C1 [Example 426, 3-[(2,2-dimethyl-morpholin-4-yl)carbonyl]-2-methyl-7-(piperidin-4-yl) pyrazolo[1,5-a] pyrimidin-5(4H)-one hydrochloride]
40	O=C(Nc1cccc2ccccc12)c1cnn2c(C3CCNCC3)cc(=O)[nH]c12 [Example 75, N-(naphthalen-1-yl)-5-oxo-7-(piperidin-4-yl)-4,5-dihydropyrazolo[1,5-a]pyrimidine-3-carboxamide]
110	COC(=O)c1cc2[nH]c(=O)cc(C3CCNCC3)n2n1 [Example 28, Methyl 5-oxo-7-(piperidin-4-yl)-4,5-dihydropyrazolo[1,5-a]pyrimidine-2-carboxylate]
18	CCOC(=O)c1c(-c2ccccc2)nn2c(C3CCNCC3)cc(=O)[nH]c12 [Example 38, Ethyl 5-oxo-2-phenyl-7-(piperidin-4-yl)-4,5-dihydropyrazolo[1,5-a]pyrimidine-3-carboxylate trifluoroacetate]
22	O=c1cc(C2CCNCC2)n2ncc(-c3coc(-c4ccccc4)n3)c2[nH]1 [Example 372, 3-(2-phenyl-1,3-oxazol-4-yl)-7-(piperidin-4-yl)pyrazolo[1,5-a]pyrimidin-5(4H)-one hydrochloride]
35	CN(CC(F)(F)F)C(=O)c1cnn2c(C3CCNCC3)cc(=O)[nH]c12 [Example 103, N-methyl-5-oxo-7-(piperidin-4-yl)-N-(2,2,2-trifluoroethyl)-4,5-dihydropyrazolo[1,5-a]pyrimidine-3-carboxamide hydrochloride]
35	O=c1cc(C2CCNCC2)n2ncc(-c3nc(-c4cccc(Cl)c4F)no3)c2[nH]1 [Example 132, 3-[3-(3-Chloro-2-fluorophenyl)-1,2,4-oxadiazol-5-yl]-7-(piperidin-4-yl)pyrazolo[1,5-a]pyrimidin-5(4H)-one hydrochloride]
40	O=c1cc(C2CCNCC2)n2ncc(-c3ccc(F)cc3)c2[nH]1 [Example 4, 3-(4-Fluorophenyl)-7-(piperidin-4-yl)pyrazolo[1,5-a]pyrimidin-5(4H)-one hydrochloride]
76	O=c1cc(C2CCNCC2)n2ncc(-c3nc(C4CCC4)no3)c2[nH]1 [Example 108, 3-(3-cyclobutyl-1,2,4-oxadiazol-5-yl)-7-(piperidin-4-yl)pyrazolo[1,5-a]pyrimidin-5(4H)-one]
35	O=c1cc(C2CCNCC2)n2ncc(-c3nnc(-c4cccc(C(F)(F)F)c4)o3)c2[nH]1 [Example 175, 7-(piperidin-4-yl)-3-{5-[3-(trifluoromethyl)phenyl]-1,3,4-oxadiazol-2-yl}pyrazolo[1,5-a]pyrimidin-5(4H)-one hydrochloride]
25	Cc1nn2c(C3CCNCC3)cc(=O)[nH]c2c1-c1nc(Cc2ccc(F)cc2)no1 [Example 299, 3-[3-(4-fluorobenzyl)-1,2,4-oxadiazol-5-yl]-2-methyl-7-(piperidin-4-yl)pyrazolo[1,5-a]pyrimidin-5(4H)-one hydrochloride]

IC50 [nM]	Compound
44	O=c1cc(C2CCNCC2)n2ncc(-c3nc(-c4ccc(C(F)(F)F)cc4)no3)c2[nH]1 [Example 113, 7-(Piperidin-4-yl)-3-{3-[4-(trifluoromethyl)phenyl]-1,2,4-oxadiazol-5-yl}pyrazolo[1,5-a]pyrimidin-5(4H)-one hydrochloride]
110	Cc1ccc(-c2noc(-c3cnn4c(C5CCNCC5)cc(=O)[nH]c34)n2)c(C(F)(F)F)c1 [Example 128, 3-{3-[4-Methyl-2-(trifluoromethyl)phenyl]-1,2,4-oxadiazol-5-yl}-7-(piperidin-4-yl)pyrazolo[1,5-a]pyrimidin-5(4H)-one hydrochloride]
17	Cc1ccccc1CNC(=O)c1cnn2c(C3CCNCC3)cc(=O)[nH]c12 [Example 86, N-(2-methylbenzyl)-5-oxo-7-(piperidin-4-yl)-4,5-dihydropyrazolo[1,5-a]pyrimidine-3-carboxamide hydrochloride]
55	Nc1cccc(-c2noc(-c3cnn4c(C5CCNCC5)cc(=O)[nH]c34)n2)c1 [Example 208, 3-[3-(3-aminophenyl)-1,2,4-oxadiazol-5-yl]-7-(piperidin-4-yl)pyrazolo[1,5-a]pyrimidin-5 (4H)-one hydrochloride]
32	O=c1cc(C2CCNCC2)n2ncc(-c3cccnc3)c2[nH]1 [Example 5, 7-(Piperidin-4-yl)-3-(pyridin-3-yl)pyrazolo[1,5-a]pyrimidin-5 (4H)-one hydrochloride]
30	O=c1cc(C2CCNCC2)n2ncc(-c3nc(Cc4ccc(Cl)c(Cl)c4)no3)c2[nH]1 [Example 213, 3-[3-(3,4-dichlorobenzyl)-1,2,4-oxadiazol-5-yl]-7-(piperidin-4-yl)pyrazolo[1,5-a]pyrimidin-5 (4H)-one hydrochloride]
49	CCc1noc(-c2cnn3c(C4CCNCC4)cc(=O)[nH]c23)n1 [Example 107, 3-(3-ethyl-1,2,4-oxadiazol-5-yl)-7-(piperidin-4-yl)pyrazolo[1,5-a]pyrimidin-5(4H)-one]
23	Cc1nn2c(C3CCNCC3)cc(=O)[nH]c2c1C(=O)NC1CCC1 [Example 422, N-cyclobutyl-2-methyl-5-oxo-7-(piperidin-4-yl)-4,5-dihydro-pyrazolo[1,5-a] pyrimidine-3-carboxamide hydrochloride]
27	O=c1cc(C2CCNCC2)n2ncc(-c3nc(-c4ccc(OC(F)(F)F)cc4)no3)c2[nH]1 [Example 115, 7-(Piperidin-4-yl)-3-{3-[4-(trifluoromethoxy)phenyl]-1,2,4-oxadiazol-5-yl}pyrazolo[1,5-a]pyrimidin-5(4H)-one hydrochloride]
15	COc1ccc(-c2cnn3c(C4CCNCC4)cc(=O)[nH]c23)cc1 [Example 53, 3-(4-Methoxyphenyl)-7-(piperidin-4-yl)pyrazolo[1,5-a]pyrimidin-5(4H)-one hydrochloride]
170	CN(C)Cc1cnn2c(C3CCNCC3)cc(=O)[nH]c12 [Example 342, 3-[(dimethylamino)methyl]-7-(piperidin-4-yl)pyrazolo[1,5-a]pyrimidin-5(4H)-one hydrochloride]
85	O=C(O)c1c(C(F)(F)F)nn2c(C3CCNCC3)cc(=O)[nH]c12 [Example 457, 5-oxo-7-(piperidin-4-yl)-2-(trifluoromethyl)-4,5-dihydropyrazolo[1,5-a]pyrimidine-3-carboxylic acid hydrochloride]
19	CS(=O)(=O)c1ccc(-c2cnn3c(C4CCNCC4)cc(=O)[nH]c23)cc1 [Example 55, 3-[4-(Methylsulfonyl)phenyl]-7-(piperidin-4-yl)pyrazolo[1,5-a]pyrimidin-5(4H)-one hydrochloride]
27	O=C(OCCC(F)(F)F)c1cnn2c(C3CCNCC3)cc(=O)[nH]c12 [Example 355, 3,3,3-trifluoropropyl 5-oxo-7-(piperidin-4-yl)-4,5-dihydropyrazolo[1,5-a]pyrimidine-3-carboxylate hydrochloride]
11	CCc1csc(-c2cnn3c(C4CCNCC4)cc(=O)[nH]c23)n1 [Example 308, 3-(4-ethyl-1,3-thiazol-2-yl)-7-(piperidin-4-yl)pyrazolo[1,5-a]pyrimidin-5(4H)-one hydrochloride]
44	O=C(OCCCF)c1cnn2c(C3CCNCC3)cc(=O)[nH]c12 [Example 352, 3-fluoropropyl 5-oxo-7-(piperidin-4-yl)-4,5-dihydropyrazolo[1,5-a]pyrimidine-3-carboxylate hydrochloride]
37	O=c1cc(C2CCNCC2)n2ncc(-c3nc(Cc4cccc(C(F)(F)F)c4)no3)c2[nH]1 [Example 222, 7-(piperidin-4-yl)-3-{3-[3-(trifluoromethyl)benzyl]-1,2,4-oxadiazol-5-yl}pyrazolo[1,5-a]pyrimidin-5(4H)-one hydrochloride]
